Each block holds one molecule with its values, some of them ahead of it.
Tested on: NCI-H929 complex spheroids, viability % test/control
Experiment: Anticancer human tumor NCI-H929 cell line growth inhibition [RAS];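 note: compound exposure lasted seven days before viability was read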;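 for viability, T/C: 100% = DMSO vehicle control viability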
Conditions: for IC50: curve of first compound; for viability, T/C: stronger effect = lower value
Procedure, shortened: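 Tumour cells grown as complex spheroids with HUVEC endothelial cells and mesenchymal stem cells, treated with RAS pathway inhibitor combinations. Each agent spans half-log steps from near clinical Cmax, or 10 microM where Cmax is unknown.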

[1] = second compound 0.000949 µM, first compound 0.0316 µM
[2] = second compound 0.000949 µM, first compound 0.1 µM
[3] = second compound 0.000949 µM, first compound 0.316 µM
[4] = second compound 0.000949 µM, first compound 1 µM
[5] = second compound 0.000949 µM, first compound 3.16 µM
[6] = second compound 0.000949 µM, first compound 10 µM
[7] = second compound 0.003 µM, first compound 0.0316 µM
[8] = second compound 0.003 µM, first compound 0.1 µM
[9] = second compound 0.003 µM, first compound 0.316 µM
[10] = second compound 0.003 µM, first compound 1 µM
[11] = second compound 0.003 µM, first compound 3.16 µM
[12] = second compound 0.003 µM, first compound 10 µM
[13] = second compound 0.00949 µM, first compound 0.0316 µM
[14] = second compound 0.00949 µM, first compound 0.1 µM
[15] = second compound 0.00949 µM, first compound 0.316 µM
[16] = second compound 0.00949 µM, first compound 1 µM
[17] = second compound 0.00949 µM, first compound 3.16 µM
[18] = second compound 0.00949 µM, first compound 10 µM
[19] = second compound 0.03 µM, first compound 0.0316 µM
[20] = second compound 0.03 µM, first compound 0.1 µM
[21] = second compound 0.03 µM, first compound 0.316 µM
[22] = second compound 0.03 µM, first compound 1 µM
[23] = second compound 0.03 µM, first compound 3.16 µM
[24] = second compound 0.03 µM, first compound 10 µM
[25] = second compound 0.0949 µM, first compound 0.0316 µM
[26] = second compound 0.0949 µM, first compound 0.1 µM
[27] = second compound 0.0949 µM, first compound 0.316 µM
[28] = second compound 0.0949 µM, first compound 1 µM
[29] = second compound 0.0949 µM, first compound 3.16 µM
[30] = second compound 0.0949 µM, first compound 10 µM
[31] = second compound 0.3 µM, first compound 0.0316 µM
[32] = second compound 0.3 µM, first compound 0.1 µM
[33] = second compound 0.3 µM, first compound 0.316 µM
[34] = second compound 0.3 µM, first compound 1 µM
[35] = second compound 0.3 µM, first compound 3.16 µM
[36] = second compound 0.3 µM, first compound 10 µM
[37] = second compound 0.0316 µM, first compound 0.0316 µM
[38] = second compound 0.0316 µM, first compound 0.1 µM
[39] = second compound 0.0316 µM, first compound 0.316 µM
[40] = second compound 0.0316 µM, first compound 1 µM
[41] = second compound 0.1 µM, first compound 0.0316 µM
[42] = second compound 0.1 µM, first compound 0.1 µM
[43] = second compound 0.1 µM, first compound 0.316 µM
[44] = second compound 0.1 µM, first compound 1 µM
[45] = second compound 0.316 µM, first compound 0.0316 µM
[46] = second compound 0.316 µM, first compound 0.1 µM
[47] = second compound 0.316 µM, first compound 0.316 µM
[48] = second compound 0.316 µM, first compound 1 µM
[49] = second compound 1 µM, first compound 0.0316 µM
[50] = second compound 1 µM, first compound 0.1 µM
[51] = second compound 1 µM, first compound 0.316 µM
[52] = second compound 1 µM, first compound 1 µM
[53] = second compound 3.16 µM, first compound 0.0316 µM
[54] = second compound 3.16 µM, first compound 0.1 µM
[55] = second compound 3.16 µM, first compound 0.316 µM
[56] = second compound 3.16 µM, first compound 1 µM
[57] = second compound 10 µM, first compound 0.0316 µM
[58] = second compound 10 µM, first compound 0.1 µM
[59] = second compound 10 µM, first compound 0.316 µM
[60] = second compound 10 µM, first compound 1 µM

IC50 (second compound 0.000949 µM): > 10 µM
IC50 (second compound 0.003 µM): > 10 µM
IC50 (second compound 0.00949 µM): > 10 µM
IC50 (second compound 0.03 µM): < 0.0316 µM
IC50 (second compound 0.0949 µM): < 0.0316 µM
IC50 (second compound 0.3 µM): < 0.0316 µM
Compound: Cc1nc(N2CCC3(CC2)COC(C)C3N)c(CO)nc1Sc1ccnc(N)c1Cl (stereo not drawn) + CCn1c(-c2cc(N3CCN(C)CC3)cnc2C(C)OC)c2c3cc(ccc31)-c1csc(n1)CC(NC(=O)C1CC1C)C(=O)N1CCCC(N1)C(=O)OCC(C)(C)C2
viability, T/C [1]: 104%
viability, T/C [2]: 96.9%
viability, T/C [3]: 108%
viability, T/C [4]: 105%
viability, T/C [5]: 113%
viability, T/C [6]: 108%
viability, T/C [7]: 101%
viability, T/C [8]: 102%
viability, T/C [9]: 104%
viability, T/C [10]: 107%
viability, T/C [11]: 110%
viability, T/C [12]: 107%
viability, T/C [13]: 118%
viability, T/C [14]: 123%
viability, T/C [15]: 118%
viability, T/C [16]: 124%
viability, T/C [17]: 88.4%
viability, T/C [18]: 119%
viability, T/C [19]: 31.8%
viability, T/C [20]: 25.4%
viability, T/C [21]: 27.2%
viability, T/C [22]: 27.8%
viability, T/C [23]: 24.9%
viability, T/C [24]: 19.7%
viability, T/C [25]: 6.44%
viability, T/C [26]: 6.29%
viability, T/C [27]: 4.23%
viability, T/C [28]: 5.24%
viability, T/C [29]: 4.2%
viability, T/C [30]: 2.67%
viability, T/C [31]: 4.38%
viability, T/C [32]: 3.24%
viability, T/C [33]: 2.87%
viability, T/C [34]: 3.05%
viability, T/C [35]: 2.74%
viability, T/C [36]: 1.82%

IC50 (second compound 0.000949 µM): 1.72 µM
IC50 (second compound 0.003 µM): 1.69 µM
IC50 (second compound 0.00949 µM): 0.652 µM
IC50 (second compound 0.03 µM): < 0.0316 µM
IC50 (second compound 0.0949 µM): < 0.0316 µM
IC50 (second compound 0.3 µM): < 0.0316 µM
Compound: CC(C)NCC(C(=O)N1CCN(c2ncnc3c2C(C)CC3O)CC1)c1ccc(Cl)cc1 (stereo not drawn) + CCn1c(-c2cc(N3CCN(C)CC3)cnc2C(C)OC)c2c3cc(ccc31)-c1csc(n1)CC(NC(=O)C1CC1C)C(=O)N1CCCC(N1)C(=O)OCC(C)(C)C2
viability, T/C [1]: 102%
viability, T/C [2]: 97.5%
viability, T/C [3]: 105%
viability, T/C [4]: 80.3%
viability, T/C [5]: 16%
viability, T/C [6]: 2.39%
viability, T/C [7]: 97.7%
viability, T/C [8]: 102%
viability, T/C [9]: 106%
viability, T/C [10]: 82.3%
viability, T/C [11]: 11.1%
viability, T/C [12]: 1.27%
viability, T/C [13]: 109%
viability, T/C [14]: 115%
viability, T/C [15]: 109%
viability, T/C [16]: 15.4%
viability, T/C [17]: 1.11%
viability, T/C [18]: 0.51%
viability, T/C [19]: 42.5%
viability, T/C [20]: 23.2%
viability, T/C [21]: 5.92%
viability, T/C [22]: 1.07%
viability, T/C [23]: 0.47%
viability, T/C [24]: 0.39%
viability, T/C [25]: 5.19%
viability, T/C [26]: 2.73%
viability, T/C [27]: 0.72%
viability, T/C [28]: 0.7%
viability, T/C [29]: 0.37%
viability, T/C [30]: 0.17%
viability, T/C [31]: 2.88%
viability, T/C [32]: 1.14%
viability, T/C [33]: 0.58%
viability, T/C [34]: 0.57%
viability, T/C [35]: 0.75%
viability, T/C [36]: 0.24%

IC50 (second compound 0.0316 µM): > 1 µM
IC50 (second compound 0.1 µM): > 1 µM
IC50 (second compound 0.316 µM): > 1 µM
IC50 (second compound 1 µM): > 1 µM
IC50 (second compound 3.16 µM): > 1 µM
IC50 (second compound 10 µM): > 1 µM
Compound: CCN1CCN(Cc2ccc(Nc3ncc(F)c(-c4cc(F)c5nc(C)n(C(C)C)c5c4)n3)nc2)CC1 + C#Cc1c(F)ccc2cc(O)cc(-c3ncc4c(N5CC6CCC(C5)N6)nc(OCC56CCCN5CC(F)C6)nc4c3F)c12
viability, T/C (second compound 0.0316 µM, first compound 0.00316 µM): 101%
viability, T/C (second compound 0.0316 µM, first compound 0.01 µM): 102%
viability, T/C [37]: 108%
viability, T/C [38]: 106%
viability, T/C [39]: 120%
viability, T/C [40]: 107%
viability, T/C (second compound 0.1 µM, first compound 0.00316 µM): 92.2%
viability, T/C (second compound 0.1 µM, first compound 0.01 µM): 99.1%
viability, T/C [41]: 103%
viability, T/C [42]: 107%
viability, T/C [43]: 118%
viability, T/C [44]: 110%
viability, T/C (second compound 0.316 µM, first compound 0.00316 µM): 96.6%
viability, T/C (second compound 0.316 µM, first compound 0.01 µM): 100%
viability, T/C [45]: 103%
viability, T/C [46]: 113%
viability, T/C [47]: 120%
viability, T/C [48]: 115%
viability, T/C (second compound 1 µM, first compound 0.00316 µM): 93.2%
viability, T/C (second compound 1 µM, first compound 0.01 µM): 102%
viability, T/C [49]: 109%
viability, T/C [50]: 113%
viability, T/C [51]: 117%
viability, T/C [52]: 112%
viability, T/C (second compound 3.16 µM, first compound 0.00316 µM): 97.8%
viability, T/C (second compound 3.16 µM, first compound 0.01 µM): 100%
viability, T/C [53]: 104%
viability, T/C [54]: 112%
viability, T/C [55]: 120%
viability, T/C [56]: 115%
viability, T/C (second compound 10 µM, first compound 0.00316 µM): 98.5%
viability, T/C (second compound 10 µM, first compound 0.01 µM): 100%
viability, T/C [57]: 99.2%
viability, T/C [58]: 109%
viability, T/C [59]: 118%
viability, T/C [60]: 57.3%

IC50 (second compound 0.0316 µM): > 10 µM
IC50 (second compound 0.1 µM): > 10 µM
IC50 (second compound 0.316 µM): > 10 µM
IC50 (second compound 1 µM): > 10 µM
IC50 (second compound 3.16 µM): 9.56 µM
IC50 (second compound 10 µM): 4.91 µM
Compound: CC(Nc1ccc2c(c1)OCCn1cc(N3C(=O)OCC3C(F)F)nc1-2)C(N)=O (stereo not drawn) + C#Cc1c(F)ccc2cc(O)cc(-c3ncc4c(N5CC6CCC(C5)N6)nc(OCC56CCCN5CC(F)C6)nc4c3F)c12
viability, T/C [37]: 99.8%
viability, T/C [38]: 102%
viability, T/C [39]: 112%
viability, T/C [40]: 110%
viability, T/C (second compound 0.0316 µM, first compound 3.16 µM): 114%
viability, T/C (second compound 0.0316 µM, first compound 10 µM): 66.2%
viability, T/C [41]: 95%
viability, T/C [42]: 102%
viability, T/C [43]: 109%
viability, T/C [44]: 114%
viability, T/C (second compound 0.1 µM, first compound 3.16 µM): 113%
viability, T/C (second compound 0.1 µM, first compound 10 µM): 73.7%
viability, T/C [45]: 97.1%
viability, T/C [46]: 102%
viability, T/C [47]: 112%
viability, T/C [48]: 115%
viability, T/C (second compound 0.316 µM, first compound 3.16 µM): 114%
viability, T/C (second compound 0.316 µM, first compound 10 µM): 70.3%
viability, T/C [49]: 94.6%
viability, T/C [50]: 101%
viability, T/C [51]: 112%
viability, T/C [52]: 115%
viability, T/C (second compound 1 µM, first compound 3.16 µM): 113%
viability, T/C (second compound 1 µM, first compound 10 µM): 62.6%
viability, T/C [53]: 98.4%
viability, T/C [54]: 102%
viability, T/C [55]: 110%
viability, T/C [56]: 114%
viability, T/C (second compound 3.16 µM, first compound 3.16 µM): 110%
viability, T/C (second compound 3.16 µM, first compound 10 µM): 47.7%
viability, T/C [57]: 96.6%
viability, T/C [58]: 100%
viability, T/C [59]: 98.6%
viability, T/C [60]: 94.4%
viability, T/C (second compound 10 µM, first compound 3.16 µM): 70.2%
viability, T/C (second compound 10 µM, first compound 10 µM): 17.4%

Source: PubChem BioAssay AID2060884 (Molecular Pharmacology Branch, DTP, NCI, 2025)
